Source: patent US8759366B2, “Aminopyrimidines as SYK inhibitors” (Merck Sharp & Dohme Corp., priority 2009, dated 2014)
Counter-ions that a name gives are not always drawn.

What follows are molecules tested against rhSYK (Homo sapiens (Human), UniProt P43405). Conditions: read-out: rhSYK activity.

Row | Structure (SMILES) | IC50 [µM]
1 | Cc1cc(Nc2nccc(C(F)(F)F)n2)cc(-c2cnc(C3(O)CCC(N(C)C)CC3)s2)c1 (stereo not shown) [Example 4C-33] | < 0.1
2 | OCCC(O)(CCO)c1ncc(-c2cccc(Nc3nccc(C(F)(F)F)n3)c2)s1 [Example 5, 3-[5-(3-{[4-(trifluoromethyl)pyrimidin-2-yl]amino}phenyl)-1,3-thiazol-2-yl]pentane-1,3,5-triol] | 0.1 to 1
3 | Cc1cc(Nc2nccc(C(F)(F)F)n2)cc(-c2cnc(C(O)C(F)(F)F)s2)c1 (stereo not shown) [Example 6, 2,2,2-trifluoro-1-[5-(3-methyl-5-{[4-(trifluoromethyl)pyrimidin-2-yl]amino}phenyl)-1,3-thiazol-2-yl]ethanol] | < 0.1
4 | O=C(c1ncc(-c2cccc(Nc3nccc(C(F)(F)F)n3)c2)s1)C(F)(F)F [Example 6-1] | < 0.1
5 | CC1(C)C(O)C(C)(C)C1(O)c1ncc(-c2cccc(Nc3nccc(C(F)(F)F)n3)c2)s1 (stereo not shown) [Example 6-10] | 0.1 to 1
6 | Cc1cc(Nc2nccc(C(F)(F)F)n2)cc(-c2cnc(C3(O)CCC(=O)CC3)s2)c1 [Example 7, 4-hydroxy-4-[5-(3-methyl-5-{[4-(trifluoromethyl)pyrimidin-2-yl]amino}phenyl)-1,3-thiazol-2-yl]cyclohexanone] | < 0.1
7 | Cc1cc(Nc2nccc(C(F)(F)F)n2)cc(-c2cnc(C3(O)CCCC(=O)C3(C)C)s2)c1 (stereo not shown) [Example 8B-1] | < 0.1
8 | Cc1cc(Nc2nccc(C(F)(F)F)n2)cc(-c2cnc(C3(O)CCCC(O)C3(C)C)s2)c1 (stereo not shown) [Example 8B-3] | < 0.1
9 | Cc1cc(Nc2nccc(C(F)(F)F)n2)cc(-c2cnc(C(C)(O)c3ccc(C(C)(C)O)cc3)s2)c1 (stereo not shown) [Example 9-1] | 0.1 to 1
10 | Cc1cc(Nc2nccc(C(F)(F)F)n2)cc(-c2cnc(C3(O)CCNC(=O)CC3)s2)c1 (stereo not shown) [Example 10, 5-Hydroxy-5-[5-(3-methyl-5-{[4-(trifluoromethyl)pyrimidin-2-yl]amino}phenyl)-1,3-thiazol-2-yl]azepan-2-one] | < 0.1
11 | Cc1cc(Nc2nccc(C(F)(F)F)n2)cc(-c2cnc(C3=CC(=O)NCCC3)s2)c1 [Example 10B-2] | < 0.1
12 | O=C(c1ncc(-c2cccc(Nc3nccc(C(F)(F)F)n3)c2)s1)C1CC1 [Example 11, Cyclopropyl[5-(3-{[4-(trifluoromethyl)pyrimidin-2-yl]amino}phenyl)-1,3-thiazol-2-yl]methanone] | < 0.1
13 | OC(c1ncc(-c2cccc(Nc3nccc(C(F)(F)F)n3)c2)s1)(C1CC1)C(F)(F)F (stereo not shown) [Example 12, 1-Cyclopropyl-2,2,2-trifluoro-1-[5-(3-{[4-(trifluoromethyl)pyrimidin-2-yl]amino}phenyl)-1,3-thiazol-2-yl]ethanol] | < 0.1
14 | Cc1cc(Nc2nccc(C(F)(F)F)n2)cc(-c2cnc(C(C)C)s2)c1 [Example 13, N-{3-methyl-5-[2-(1-methylethyl)-1,3-thiazol-5-yl]phenyl}-4-(trifluoromethyl)pyrimidin-2-amine] | < 0.1
15 | CC(C)(C)OC(=O)N1CCC(C(C)(O)c2ncc(-c3cccc(Nc4nccc(C(F)(F)F)n4)c3)s2)CC1 (stereo not shown) [Example 15(1), tert-butyl 4-{1-hydroxy-1-[5-(3-{[4-(trifluoromethyl)pyrimidin-2-yl]amino}phenyl)-1,3-thiazol-2-yl]ethyl}piperidine-1-carboxylate] | 0.1 to 1
16 | CC(O)(c1ncc(-c2cccc(Nc3nccc(C(F)(F)F)n3)c2)s1)C1CCNCC1 (stereo not shown) [Example 15(2), 1-(piperidin-4-yl)-1-[5-(3-{[4-(trifluoromethyl)pyrimidin-2-yl]amino}phenyl)-1,3-thiazol-2-yl]ethanol] | < 0.1
17 | CC(=O)Nc1cc(Nc2nccc(C(F)(F)F)n2)cc(-c2cnc(C3(O)CCC3)s2)c1 [Example 16, N-(3-[2-(1-hydroxycyclobutyl)-1,3-thiazol-5-yl]-5-{[4-(trifluoromethyl)pyrimidin-2-yl]amino}phenyl)acetamide] | < 0.1
18 | Nc1cc(Nc2nccc(C(F)(F)F)n2)cc(-c2cnc(C3(O)CCC3)s2)c1 [Example 17, 1-[5-(3-amino-5-{[4-(trifluoromethyl)pyrimidin-2-yl]amino}phenyl)-1,3-thiazol-2-yl]cyclobutanol] | < 0.1
19 | O=[N+]([O-])c1cc(Nc2nccc(C(F)(F)F)n2)cc(-c2cnc(C3(O)CCC3)s2)c1 [Example 18, 1-[5-(3-nitro-5-{[4-(trifluoromethyl)pyrimidin-2-yl]amino}phenyl)-1,3-thiazol-2-yl]cyclobutanol] | 0.1 to 1

Row | Structure (SMILES) | IC50 [µM]
20 | O=C(Nc1cc(Nc2nccc(C(F)(F)F)n2)cc(-c2cnc(C3(O)CCC3)s2)c1)NC1CCCC1 [Example 19, 1-cyclopentyl-3-(3-[2-(1-hydroxycyclobutyl)-1,3-thiazol-5-yl]-5-{[4-(trifluoromethyl)pyrimidin-2-yl]amino}phenyl)urea] | < 0.1
21 | CC(C)(CO)c1ncc(-c2cccc(Nc3nccc(C(F)(F)F)n3)c2)s1 [Example 21, 2-methyl-2-[5-(3-{[4-(trifluoromethyl)pyrimidin-2-yl]amino}phenyl)-1,3-thiazol-2-yl]propan-1-ol] | < 0.1
22 | OC(c1ncc(-c2cc(Nc3nccc(C(F)(F)F)n3)cc(N3CCOCC3)c2)s1)(C1CC1)C1CC1 [Example 24, dicyclopropyl{5-[3-(morpholin-4-yl)-5-{[4-(trifluoromethyl)pyrimidin-2-yl]amino}phenyl]-1,3-thiazol-2-yl}methanol] | < 0.1
23 | Cc1cc(Nc2nccc(C(F)(F)F)n2)cc(-c2cnc([C@]3(F)CC[C@@H](C(=O)O)CC3)s2)c1 [Example 26, cis-4-Fluoro-4-[5-(3-methyl-5-{[4-(trifluoromethyl)pyrimidin-2-yl]amino}phenyl)-1,3-thiazol-2-yl]cyclohexanecarboxylic acid] | < 0.1
24 | OC1(c2ncc(-c3cc(NCC(F)(F)F)cc(Nc4nccc(C(F)(F)F)n4)c3)s2)CCC1 [Example 27, 1-[5-(3-[(2,2,2-trifluoroethyl)amino]-5-{[4-(trifluoromethyl)pyrimidin-2-yl]amino}phenyl)-1,3-thiazol-2-yl]cyclobutanol] | < 0.1
25 | OC1(c2ncc(-c3cc(Nc4nccc(C(F)(F)F)n4)cc(C(F)F)c3)s2)CCC1 [Example 28, 1-{5-[3-(difluoromethyl)-5-{[4-(trifluoromethyl)pyrimidin-2-yl]amino}phenyl]-1,3-thiazol-2-yl}cyclobutanol] | < 0.1
26 | C#Cc1cc(Nc2nccc(C(F)(F)F)n2)cc(-c2cnc(C(C)(C)O)s2)c1 [Example 29, 2-[5-(3-ethynyl-5-{[4-(trifluoromethyl)pyrimidin-2-yl]amino}phenyl)-1,3-thiazol-2-yl]propan-2-ol] | < 0.1
27 | CCc1cc(Nc2nccc(C(F)(F)F)n2)cc(-c2cnc(C(C)(C)O)s2)c1 [Example 30, 2-[5-(3-ethyl-5-{[4-(trifluoromethyl)pyrimidin-2-yl]amino}phenyl)-1,3-thiazol-2-yl]propan-2-ol] | < 0.1
28 | CC(C)(O)c1ncc(-c2cc(Nc3nccc(C(F)(F)F)n3)cc(C3CC3)c2)s1 [Example 31, 2-[5-(3-cyclopropyl-5-{[4-(trifluoromethyl)pyrimidin-2-yl]amino}phenyl)-1,3-thiazol-2-yl]propan-2-ol] | < 0.1
29 | CCOC(=O)C1CC=C(c2ncc(-c3cc(C)cc(Nc4nccc(C(F)(F)F)n4)c3)s2)CC1 (stereo not shown) [Example 34, ethyl 4-[5-(3-methyl-5-{[4-(trifluoromethyl)pyrimidin-2-yl]amino}phenyl)-1,3-thiazol-2-yl]cyclohex-3-ene-1-carboxylate] | 0.1 to 1
30 | CCOC(=O)C1CCC(c2ncc(-c3cc(C)cc(Nc4nccc(C(F)(F)F)n4)c3)s2)CC1 (stereo not shown) [Example 35, ethyl 4-[5-(3-methyl-5-{[4-(trifluoromethyl)pyrimidin-2-yl]amino}phenyl)-1,3-thiazol-2-yl]cyclohexanecarboxylate] | 0.1 to 1
31 | Cc1cc(Nc2nccc(C(F)(F)F)n2)cc(-c2cnc(C3CCC(C(=O)O)CC3)s2)c1 (stereo not shown) [Example 36, 4-[5-(3-methyl-5-{[4-(trifluoromethyl)pyrimidin-2-yl]amino}phenyl)-1,3-thiazol-2-yl]cyclohexanecarboxylic acid] | < 0.1
32 | Cc1cc(Nc2nccc(C(F)(F)F)n2)cc(-c2cnc([C@]3(O)CC[C@@H](c4noc(=O)[nH]4)CC3)s2)c1 [Example 39, 3-{cis-4-Hydroxy-4-[5-(3-methyl-5-{[4-(trifluoromethyl)pyrimidin-2-yl]amino}phenyl)-1,3-thiazol-2-yl]cyclohexyl}-1,2,4-oxadiazol-5(4H)-one] | < 0.1
33 | COC1(c2ncc(-c3cc(C)cc(Nc4nccc(C(F)(F)F)n4)c3)s2)CCC(C(=O)O)CC1 (stereo not drawn) [Example 40(1), 2-({3-[2-(cis-4-Carboxy-1-methoxycyclohexyl)-1,3-thiazol-5-yl]-5-methylphenyl}amino)-4-(trifluoromethyl)pyrimidin-1-ium trifluoroacetate] | < 0.1
34 | Cc1cc(Nc2nccc(C(F)(F)F)n2)cc(-c2cnc(C3(O)CCC(N)(C(=O)O)CC3)s2)c1 (stereo not shown) [Example 41, 1-amino-4-hydroxy-4-[5-(3-methyl-5-{[4-(trifluoromethyl)pyrimidin-2-yl]amino}phenyl)-1,3-thiazol-2-yl]cyclohexanecarboxylic acid] | < 0.1
35 | Cc1cc(Nc2nccc(C(F)(F)F)n2)cc(-c2cnc(C3(O)CCN(C(=O)OC(C)(C)C)CC3)s2)c1 [Example 45, tert-butyl 4-hydroxy-4-[5-(3-methyl-5-{[4-(trifluoromethyl)pyrimidin-2-yl]amino}phenyl)-1,3-thiazol-2-yl]piperidine-1-carboxylate] | < 0.1
36 | Cc1cc(Nc2nccc(C(F)(F)F)n2)cc(-c2cnc(C3(O)CCNCC3)s2)c1 [Example 46, 4-[5-(3-methyl-5-{[4-(trifluoromethyl)pyrimidin-2-yl]amino}phenyl)-1,3-thiazol-2-yl]piperidin-4-ol] | < 0.1
37 | Cc1cc(Nc2nccc(C(F)(F)F)n2)cc(-c2cnc(C3(O)CCN(C(N)=O)CC3)s2)c1 [Example 47, 4-hydroxy-4-[5-(3-methyl-5-{[4-(trifluoromethyl)pyrimidin-2-yl]amino}phenyl)-1,3-thiazol-2-yl]piperidine-1-carboxamide] | < 0.1
